Data reported in US10583206B2, “Radioactive probe for detecting hydrogen sulfide” (KYUNGPOOK NATIONAL UNIVERSITY INDUSTRY-ACADEMIC COOPERATION …, priority 2015, dated 2020).
Where two headings read alike, the source gives them in different places.

Tests used:
[1] = Hydrogen sulfide selectivity test: decomplexation by ME; type: physicochemical; conditions: 2-mercaptoethanol; 100 μM or (2-ME, 10 mM); 37° C. for 15 minutes
Description: (§1) In addition to hydrogen sulfide, many different anions, radicals, etc. exist in the body. Therefore, to examine selective reactivity of the ^64Cu-labeled complex compound according to the present disclosure for sulfide ions, the following experiment was performed.
(§2) About 45 μCi-55 μCi of the ^64Cu-labeled complex compound (250 μL of triple distilled water) was mixed with 100 μM of various anion solutions (250 μL of triple distilled water) including biothiol, and stirred at 37° C. for 15 minutes.
(§3) Formation of copper sulfide (^64CuS) was quantified by using a radio-TLC scanner.
(§4) Various biothiol or salt solutions were prepared by dissolving the compounds in triple distilled water.
(§5) In Table, concentrations of all biothiols and other competitive materials are 100 μM. Further, specific concentrations of biothiols, anions, and oxidants used in Table are as follows: [L-Cys (1 mM); L-Hcys (10 mM); GSH (10 mM); DL-dithiothretitol (DTT, 100 μM); L-ascorbic acid (L-AsA, 10 mM); 2-mercaptoethanol (2-ME, 10 mM); NaCl (10 mm); KI (1 mM); Na2S2O3 (1 mM); Na2S2O5 (1 mM); NaOAc (1 mM); H2O2 ([…]); NaClO4 (100 μM); NaHCO3 (100 μM); NaNO2 ([…]); NaN3 (100 μM); ATB 337 (100 μM); diallyl trisulphide (100 μM)].

[2] = Test of hydrogen sulfide detection over time (^64CuS formation, radio-TLC); type: physicochemical; design: unit not given here; conditions: 100 μM NaHS, 37° C.
Description: To examine reactivity of the ^64Cu-labeled complex compound according to the present disclosure over time, the following experiment was performed.
A detailed experimental method is as follows.
About 45 μCi-50 μCi of ^64Cu-labeled complex compound (250 μL of triple distilled water) was mixed with 100 μM of NaHS solution ([…] of triple distilled water), and stirred at 37° C. for 15 minutes. Formation of copper sulfide (^64CuS) was quantified by using a radio-TLC scanner.

[3] = Hydrogen sulfide selectivity test: decomplexation by NaNO2; type: physicochemical; conditions: NaNO2 (100 µM); 37° C. for 15 minutes
Description: as §1, §2, §3, §4, §5

[4] = Hydrogen sulfide selectivity test: decomplexation by L-AsA; type: physicochemical; conditions: L-ascorbic acid; 100 μM or (L-AsA, 10 mM); 37° C. for 15 minutes
Description: as §1, §2, §3, §4, §5

[5] = Hydrogen sulfide selectivity test: decomplexation by NaOAc; type: physicochemical; conditions: 100 μM or (1 mM), 37° C. for 15 minutes
Description: as §1, §2, §3, §4, §5

[6] = Hydrogen sulfide selectivity test: decomplexation by NaClO4; type: physicochemical; conditions: NaClO4 (100 μM); 37° C. for 15 minutes
Description: as §1, §2, §3, §4, §5

[7] = Test of hydrogen sulfide detection sensitivity (% decomplexation with NaHS, radio-TLC); type: physicochemical; conditions: for % decomplexation: 37° C. for 15 minutes
Description: To measure hydrogen sulfide detection sensitivity of the ^64Cu-labeled complex compound according to the present disclosure, the following experiment was performed.
About 45 μCi-55 μCi of ^64Cu-labeled complex compound (250 μL of triple distilled water) was mixed with various concentrations of NaHS solution (250 µL of triple distilled water), and stirred at 37° C. for 15 minutes (a total volume used in the reaction was equally 500 μL). After completion of the reaction, the resulting products were strongly stirred to mix appropriately.
Formation of copper sulfide (^64CuS) was confirmed by quantification of % decomplexation by using a radio-TLC scanner, and results are shown in the following Tables 2 and 3.

[8] = Hydrogen sulfide selectivity test: decomplexation by Kl; type: physicochemical; conditions: 100 μM or KI (1 mM), 37° C. for 15 minutes
Description: as §1, §2, §3, §4, §5

[9] = test system: Paw inflammation model; type: in vivo, Balb/c or ICR mice
Description: (1) Paw Pain Inflammation Model
A small amount of CFA (complete Freund's adjuvant) or formalin was injected into only one paw (right) of the hind paws of Balb/c or ICR mice to establish inflammation models. 1 day after injection of the inflammation inducer, the mice were used in imaging or other in vivo experiments.
It is a known fact that inflamed sites show high concentrations of hydrogen sulfide.
Nuclear medicine imaging was measured by using an Inveon PET/CT system of Siemens Healthcare, and optical imaging was measured by using IVIS spectrum CT equipment. Cherenkov radiation emitted from ^64Cu was measured by using a highly sensitive CCD (charge-coupled device) camera.
Imaging was measured for 1 minute to 5 minutes, and a radiation dose was about 50 μCi to 2000 μCi, and photographs were variously taken as needed, such as immediately after first injection, at 1 hour, 4 hours, and 24 hours later.

[10] = Hydrogen sulfide selectivity test: decomplexation by NaN3; type: physicochemical; conditions: NaN3 (100 μM); 37° C. for 15 minutes
Description: as §1, §2, §3, §4, §5

[11] = Hydrogen sulfide selectivity test: decomplexation by Na2S2O3; type: physicochemical; conditions: 100 μM or (1 mM), 37° C. for 15 minutes
Description: as §1, §2, §3, §4, §5

[12] = Hydrogen sulfide selectivity test: decomplexation by Na2S2O5; type: physicochemical; conditions: 100 μM or (1 mM), 37° C. for 15 minutes
Description: as §1, §2, §3, §4, §5

[13] = Hydrogen sulfide selectivity test: decomplexation by NaHCO3; type: physicochemical; conditions: NaHCO3 (100 μM); 37° C. for 15 minutes
Description: as §1, §2, §3, §4, §5

[14] = test system: Myocardial infarction model; assay: Imaging study in myocardial infarction model (PET); type: in vivo, Sprague-Dawley rats
Text: (2) Myocardial Infarction Model
A myocardial infarction model was established by using Sprague-Dawley rats (12-week-old or older, about 250 g). 2 days later after induction of myocardial infarction by occlusion of the coronary arteries in the heart, the rats were used in imaging tests. It is a known fact that myocardial infarction sites show high concentrations of hydrogen sulfide.
It is known that myocardial infarction sites show high concentrations of hydrogen sulfide. Thus, after induction of myocardial infarction by coronary artery occlusion in rats, 50 μCi-900 μCi of the ^64Cu-labeled complex compound was injected via the tails of the rats, and uptake in the myocardial infarction site was examined over time by PET imaging.
36 hours after establishment of the myocardial infarction model, 730 μCi of the radioisotope-labeled complex compound of the present disclosure was injected and nuclear medicine imaging was performed. 2 days later, […] of FDG was injected into the same rat, and then FDG-PET images were obtained. Results are shown in FIGS. 15 to 17 (in the nuclear medicine imaging, the upper image represents a transverse image, and the lower image represents a coronal image).

SMILES | Decomplexation [%] [1] [%] | Formation of copper sulfide (^64CuS) over time ([2]; 10 sec) | Formation of copper sulfide (^64CuS) over time ([2]; 30 sec) | Formation of copper sulfide (^64CuS) over time ([2]; 60 sec) | Formation of copper sulfide (^64CuS) over time ([2]; 5 min) | Formation of copper sulfide (^64CuS) over time ([2]; 10 min) | Formation of copper sulfide (^64CuS) over time ([2]; 15 min) | Decomplexation [%] [3] [%] | Decomplexation [%] [4] [%] | Decomplexation [%] [5] [%] | Decomplexation [%] [6] [%] | % decomplexation ([7]; NaHS 0 μM) [%] | % decomplexation ([7]; NaHS 1 μM) [%] | % decomplexation ([7]; NaHS 10 μM) [%] | % decomplexation ([7]; NaHS 15 μM) [%] | % decomplexation ([7]; NaHS 20 μM) [%] | % decomplexation ([7]; NaHS 50 μM) [%] | % decomplexation ([7]; NaHS 100 μM) [%] | Decomplexation [%] [8] [%] | Decomplexation [%] [10] [%] | other results
C1C[N]2CC[N]3CC[N]4CC[N]1[64Cu]243 [Example 1, ^64Cu-labeled cyclen] | 0.5 ± 0.1 | 13 | 17 | 21 | 100 | 100 | 100 | 0.6 ± 0.0 | 0.5 ± 0.1 | 0.6 ± 0.1 | 0.6 ± 0.2 | 0 | 3 | 11 | 63 | 95 | 100 | 100 | 0.7 ± 0.2 | 0.3 ± 0.2 | sensitivity for hydrogen sulfide (lowest detectable concentration), in words ([7]; comparison among tested complexes): most excellent sensitivity for hydrogen sulfide; retention time in the animal models ([9]; ICR and Balb/c, mouse, in vivo): ≥ 24 h; uptake in inflamed paw versus opposite paw ([9]; PET imaging): higher uptake in the inflamed right paw than in the opposite paw; uptake in the CFA-induced inflamed site ([9]; optical imaging): increased uptake; Decomplexation [%] [11]: 0.4 ± 0.0%; Decomplexation [%] [12]: 0.5 ± 0.2%; Decomplexation [%] [13]: 0.6 ± 0.3%; uptake in the myocardial infarction site ([14]; image taken at 24 hours after injection): high uptake was detected in the myocardial infarction site
C1C[N]2CC[N]3CC[N]1[64Cu]23 [Example 20, ^64Cu-labeled TACN] | 0.4 ± 0.0 | 0 | 0 | 5 | 13 | 60 | 60 | 0.4 ± 0.0 | 0.8 ± 0.5 | 0.3 ± 0.0 | 0.4 ± 0.1 | 0 | 0 | 9 | 11 | 13.5 | 24.6 | 54.4 | 0.4 ± 0.2 | 0.4 ± 0.0 | detection of the inflamed site immediately after injection ([9]; imaging immediately after injection): detected in imaging immediately after injection; uptake in inflamed paw versus opposite paw ([9]; imaging performed after 1 hour, also PET imaging): higher uptake; Decomplexation [%] [11]: 0.5 ± 0.0%; Decomplexation [%] [12]: 0.5 ± 0.2%; Decomplexation [%] [13]: 0.6 ± 0.4%; uptake / visualisation of the myocardial infarction site ([14]; PET imaging after injection): the myocardial infarction site was clearly observed
